These results are taken from US10618903B2, “Heteroaryl substituted aminopyridine compounds” (BRISTOL-MYERS SQUIBB COMPANY, priority 2015, dated 2020).

In one data set the target is IRAK4 (Homo sapiens (Human), UniProt Q9NWZ3). Nature of the data set: IRAK4 Inhibition Assay. In kind it is biochemical. The following applies: ATP 500 μM; IRAK4 0.6 nM. In a few lines:
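Enzyme 0.6 nM, ATP 500 μM, FL-peptide 1.5 μM, DMSO 1.6%; HEPES pH 7.2/MgCl2/Brij 35/DTT buffer. RT, 60 min, EDTA stop. Mobility-shift product/substrate ratio; % inhib vs no-enzyme and vehicle controls.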

Data set [1] deals with IL-6 levels in human whole blood stimulated with a TLR2 agonist. Nature of the data set: IRAK4 Whole Blood Assay (lipoteichoic acid/TLR2-stimulated IL-6). In kind it is cell-based. The following applies: Homo sapiens, lipoteichoic acid 10 μg/mL, IL-6 readout. In a few lines:
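ACD-A-anticoagulated human whole blood was preincubated with compounds for 60 min at 37 °C under 5% CO2. It was then stimulated with 10 μg/mL lipoteichoic acid (final) in RPMI for 5 h. IL-6 in plasma supernatants was measured by flow cytometry bead assay.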

The nature of a further data set: Caco Permeability Assay. The following applies: human, Caco-2, Caco-2 cells, 3 μM compound. In kind it is in vitro ADME. On the procedure: Thirteen to 27 days prior to assay, Caco-2 cells were seeded onto collagen-coated polycarbonate filter membranes in 24-well transwell plates at a density of 1.45×10^5 cells/cm^2, approximately 4.8×10^4 cells per well. The cells were grown in a culture medium consisting of DMEM supplemented with 10% fetal bovine serum, 10 mM HEPES, 1% nonessential amino acids, 2 mM L-glutamine, 100 U/mL penicillin-G, and 100 μg/mL streptomycin. The culture medium was replaced every 3 days and the cells were maintained at 37° C. in a 95% relative humidity and 5% CO2 atmosphere. The cells were evaluated for tight junction formation just prior to assay. The test compound was solubilized to 10 mM in 100% DMSO and diluted to 3 μM in assay buffer. Permeability studies were initiated by adding 200 μL assay buffer plus/minus compound to the apical transwell compartment and 600 μL assay buffer plus/minus compound to the basolateral compartment of the 24-well transwell low-binding cluster plate. For apical-to-basolateral (A to B) permeability (absorptive direction), buffer containing compound was placed in the apical compartment (donor wells), while buffer alone was placed in the corresponding basolateral compartments (receiver wells). For basolateral-to-apical (B to A) permeability (secretive direction), buffer containing compound was placed in the basolateral compartment (donor wells), while buffer alone was placed in the corresponding apical compartments (receiver wells). Transwells were then incubated for 2 hours at 37° C. in a 95% relative humidity and 5% CO2 atmosphere with gentle agitation. Following incubation, 100 μL was removed from each apical and basolateral compartment and transferred to 96-well low binding plates that had been previously loaded with 100 µL/well of acetonitrile containing 250 nM propranolol, 250 nM diclofenac, and 500 nM tolbutamide as internal standards. The samples were subsequently analyzed by LC-MS/MS to determine concentrations of compound.
(Caco-2 monolayers are a common model of the intestinal barrier.)

Sequence of IRAK4 (Q9NWZ3 whole entry): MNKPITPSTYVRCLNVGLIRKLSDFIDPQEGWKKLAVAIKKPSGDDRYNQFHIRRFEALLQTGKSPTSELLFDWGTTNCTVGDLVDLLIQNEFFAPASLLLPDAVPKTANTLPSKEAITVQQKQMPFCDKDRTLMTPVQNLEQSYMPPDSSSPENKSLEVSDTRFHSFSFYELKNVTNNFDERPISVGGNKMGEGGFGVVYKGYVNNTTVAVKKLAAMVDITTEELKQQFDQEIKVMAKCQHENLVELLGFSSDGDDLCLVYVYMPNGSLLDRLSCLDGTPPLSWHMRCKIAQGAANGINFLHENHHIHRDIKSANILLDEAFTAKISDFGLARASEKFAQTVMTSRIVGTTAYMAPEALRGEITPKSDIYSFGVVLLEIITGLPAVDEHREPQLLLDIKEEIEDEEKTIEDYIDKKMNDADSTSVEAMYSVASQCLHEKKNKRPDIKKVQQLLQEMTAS

The term IC50 denotes the concentration that inhibits the measured activity by half. In general, EC50 refers to the concentration needed to bring the measured effect to its halfway point. In general, Papp refers to the rate of passage across a membrane or cell layer, normalised by area and donor concentration. Read a low Papp as poor permeation. On to `CC(C)(O)[C@H](F)CNC(=O)c1cnc(-c2cnn3cc(Cl)cnc23)cc1NC1CC1` [Example 22, (R)-6-(6-chloropyrazolo[1,5-a]pyrimidin-3-yl)-4-(cyclopropylamino)-N-(2-fluoro-3-hydroxy-3-methylbutyl)nicotinamide], for which the IC50 at IRAK4 was determined as 2 nM. For the same compound, the response in data set [1] was half-maximal at 11100 nM (EC50). Also, the Papp at 2 h, 3 µM in “Caco Permeability Assay” is 16.2 ×10⁻⁶ cm/s.

Consider `CC(C)Nc1cc(-c2cnc3cc(Cl)cnn23)ncc1C(=O)NC[C@@H](F)C(C)(C)O` [Example 142, (R)-6-(7-chloroimidazo[1,2-b]pyridazin-3-yl)-N-(2-fluoro-3-hydroxy-3-methylbutyl)-4-(isopropylamino)nicotinamide], for which, on IRAK4, the IC50 stood at 3 nM. In data set [1], the EC50 turned out to be 100 nM. For the same compound, the Papp at 2 h, 3 µM in “Caco Permeability Assay” turned out to be 19 ×10⁻⁶ cm/s.

`CC(C)(O)[C@H](F)CNC(=O)c1cnc(-c2cnn3cc(Cl)cnc23)cc1NC1CCOCC1` [Example 30, (R)-6-(6-chloropyrazolo[1,5-a]pyrimidin-3-yl)-N-(2-fluoro-3-hydroxy-3-methylbutyl)-4-((tetrahydro-2H-pyran-4-yl)amino)nicotinamide]: the concentration for half-maximal inhibition (IC50) at IRAK4 turned out to be 4 nM. This compound also yielded an EC50 in data set [1] of 380 nM. The compound further showed an apparent permeability coefficient (Papp) at 2 h, 3 µM in “Caco Permeability Assay” of 14.2 ×10⁻⁶ cm/s.

Consider `CC(C)(O)[C@H](F)CNC(=O)c1cnc(-c2cnc3cc(C#N)cnn23)cc1Nc1cc2n(n1)CCN(CC(F)F)C2` [Example 280, (R)-6-(7-cyanoimidazo[1,2-b]pyridazin-3-yl)-4-((5-(2,2-difluoroethyl)-4,5,6,7-tetrahydropyrazolo[1,5-a]pyrazin-2-yl)amino)-N-(2-fluoro-3-hydroxy-3-methylbutyl)nicotinamide], for which the IC50 on IRAK4 came to 6 nM. This compound had an EC50 in data set [1] of 330 nM. The apparent permeability coefficient (Papp) at 2 h, 3 µM in “Caco Permeability Assay” is < 1.5 ×10⁻⁶ cm/s.

Consider `Cc1cnn2c(-c3cc(NC(C)C)c(C(=O)NC[C@@H](F)C(C)(C)O)cn3)cnc2c1` [Example 148, (R)—N-(2-fluoro-3-hydroxy-3-methylbutyl)-4-(isopropylamino)-6-(7-methylimidazo[1,2-b]pyridazin-3-yl)nicotinamide], for which the IC50 at IRAK4 was determined as 7 nM. For the same compound, a half-maximal effect in data set [1] (EC50) was put at 350 nM. For the same compound, the Papp at 2 h, 3 µM in the data set “Caco Permeability Assay” is 8.9 ×10⁻⁶ cm/s.

For `CC(C)(F)[C@H](F)CNC(=O)c1cnc(-c2cnc3cc(C#N)cnn23)cc1Nc1cnn(CC(F)F)c1` [Example 258, (R)-6-(7-cyanoimidazo[1,2-b]pyridazin-3-yl)-N-(2,3-difluoro-3-methylbutyl)-4-((1-(2,2-difluoroethyl)-1H-pyrazol-4-yl)amino)nicotinamide], the IC50 on IRAK4 is 2 nM. Moreover, the midpoint of the response in data set [1], the EC50, lay at 180 nM. The Papp at 2 h, 3 µM in the data set “Caco Permeability Assay” came out at 5.9 ×10⁻⁶ cm/s.

Take `CC(F)(F)CNc1cc(-c2cnn3cc(C#N)cnc23)ncc1C(=O)NC[C@@H](F)C(C)(C)O` [Example 172, (R)-6-(6-cyanopyrazolo[1,5-a]pyrimidin-3-yl)-4-((2,2-difluoropropyl)amino)-N-(2-fluoro-3-hydroxy-3-methylbutyl)nicotinamide]: the IC50 at IRAK4 came to 4 nM. Besides, in data set [1], the EC50 was determined as 460 nM. The compound further gave an apparent permeability (Papp) at 2 h, 3 µM in the data set “Caco Permeability Assay” of 4.2 ×10⁻⁶ cm/s.

For the compound `C[C@H](F)CNc1cc(-c2cnn3cc(Cl)cnc23)ncc1C(=O)NC[C@@H](F)C(C)(C)O` [Example 61, 6-(6-chloropyrazolo[1,5-a]pyrimidin-3-yl)-N—((R)-2-fluoro-3-hydroxy-3-methylbutyl)-4-(((S)-2-fluoropropyl)amino)nicotinamide], the IC50 on IRAK4 is 6 nM. For the same compound, the midpoint of the response in data set [1], the EC50, lay at 1820 nM. In the data set “Caco Permeability Assay”, this compound displayed a Papp at 2 h, 3 µM of 19.7 ×10⁻⁶ cm/s.

Consider `CC(C)Nc1cc(-c2cnc3cc(C#N)cnn23)ncc1C(=O)NCC(F)C1CCNCC1` (stereo not drawn) [Example 197, 6-(7-cyanoimidazo[1,2-b]pyridazin-3-yl)-N-(2-fluoro-2-(piperidin-4-yl)ethyl)-4-(isopropylamino)nicotinamide], for which, on IRAK4, the IC50 worked out at 2 nM. A half-maximal effect in data set [1] (EC50) was put at 280 nM. Besides, the Papp at 2 h, 3 µM in the data set “Caco Permeability Assay” is < 1.5 ×10⁻⁶ cm/s.

For the compound `CC(C)(O)[C@H]1CC[C@H](NC(=O)c2cnc(-c3cnn4cc(Cl)cnc34)cc2NC2COC2)CC1` [Example 40, 6-(6-chloropyrazolo[1,5-a]pyrimidin-3-yl)-N-((1r,4r)-4-(2-hydroxypropan-2-yl)cyclohexyl)-4-(oxetan-3-ylamino)nicotinamide], the IC50 at IRAK4 came to 4 nM. A half-maximal response in data set [1] (EC50) required 1720 nM. The Papp at 2 h, 3 µM in “Caco Permeability Assay” worked out at 22.1 ×10⁻⁶ cm/s.

As to `CC[C@@H](C)Nc1cc(-c2cnn3cc(Cl)cnc23)ncc1C(=O)NC[C@@H](F)C(C)(C)O` [Example 70, 4-(((R)-sec-butyl)amino)-6-(6-chloropyrazolo[1,5-a]pyrimidin-3-yl)-N—((R)-2-fluoro-3-hydroxy-3-methylbutyl)nicotinamide], the IC50 on IRAK4 worked out at 3 nM. This compound also displayed an EC50 in data set [1] of 840 nM. This compound had a Papp at 2 h, 3 µM in the data set “Caco Permeability Assay” of 7.3 ×10⁻⁶ cm/s.

In the case of `CC(F)(F)Cn1ccc(Nc2cc(-c3cnn4cc(C#N)cnc34)ncc2C(=O)NC[C@@H](F)C(C)(C)O)n1` [Example 245, (R)-6-(6-cyanopyrazolo[1,5-a]pyrimidin-3-yl)-4-((1-(2,2-difluoropropyl)-1H-pyrazol-3-yl)amino)-N-(2-fluoro-3-hydroxy-3-methylbutyl)nicotinamide], the IC50 on IRAK4 came out at 4 nM. The midpoint of the response in data set [1], the EC50, lay at 410 nM. This compound gave a Papp at 2 h, 3 µM in the data set “Caco Permeability Assay” of 1.8 ×10⁻⁶ cm/s.

`CCNc1cc(-c2cnc3cc(Cl)cnn23)ncc1C(=O)NC[C@@H](F)C(C)(C)O` [Example 178, (R)-6-(7-chloroimidazo[1,2-b]pyridazin-3-yl)-4-(ethylamino)-N-(2-fluoro-3-hydroxy-3-methylbutyl)nicotinamide]: the half-inhibitory concentration (IC50) on IRAK4 worked out at 4 nM. The compound also returned an EC50 in data set [1] of 710 nM. Further, the Papp at 2 h, 3 µM in “Caco Permeability Assay” was determined as 21.5 ×10⁻⁶ cm/s.

Consider `C[C@@H](CF)Nc1cc(-c2cnn3cc(Cl)cnc23)ncc1C(=O)NC[C@@H](F)C(C)(C)O` [Example 32, 6-(6-chloropyrazolo[1,5-a]pyrimidin-3-yl)-N—((R)-2-fluoro-3-hydroxy-3-methylbutyl)-4-(((S)-1-fluoropropan-2-yl)amino)nicotinamide], for which, at IRAK4, the IC50 was 4 nM. Further, the EC50 in data set [1] stood at 710 nM. This compound also registered an apparent permeability (Papp) at 2 h, 3 µM in the data set “Caco Permeability Assay” of 24.1 ×10⁻⁶ cm/s.

Regarding `Cn1cc(Nc2cc(-c3cnn4cc(C#N)cnc34)ncc2C(=O)NC[C@@H](F)C(C)(C)O)cn1` [Example 240, (R)-6-(6-cyanopyrazolo[1,5-a]pyrimidin-3-yl)-N-(2-fluoro-3-hydroxy-3-methylbutyl)-4-((1-methyl-1H-pyrazol-4-yl)amino)nicotinamide], the IC50 at IRAK4 is 2 nM. In data set [1], this compound yielded an EC50 of 180 nM. The Papp at 2 h, 3 µM in “Caco Permeability Assay” was < 1.5 ×10⁻⁶ cm/s.

As for `CC(C)(F)Cn1cc(Nc2cc(-c3cnc4cc(C#N)cnn34)ncc2C(=O)NC[C@@H](F)C(C)(C)O)cn1` [Example 279, (R)-6-(7-cyanoimidazo[1,2-b]pyridazin-3-yl)-4-((1-(2-fluoro-2-methylpropyl)-1H-pyrazol-4-yl)amino)-N-(2-fluoro-3-hydroxy-3-methylbutyl)nicotinamide], the IC50 at IRAK4 amounted to 1 nM. Also, the concentration giving a half-maximal response (EC50) in data set [1] was 780 nM. Further, the Papp at 2 h, 3 µM in “Caco Permeability Assay” was < 1.5 ×10⁻⁶ cm/s.

Consider `CC(C)Nc1cc(-c2cnn3cc(Cl)cnc23)ncc1C(=O)NC[C@@H](F)C(C)(C)O` [Example 1, (R)-6-(6-chloropyrazolo[1,5-a]pyrimidin-3-yl)-N-(2-fluoro-3-hydroxy-3-methylbutyl)-4-(isopropylamino)nicotinamide], for which the IC50 on IRAK4 was determined as 3 nM. This compound also yielded an EC50 in data set [1] of 400 nM. For the same compound, in the data set “Caco Permeability Assay”, the Papp at 2 h, 3 µM worked out at 24.8 ×10⁻⁶ cm/s.

Take `CC(C)Nc1cc(-c2cnn3cc(F)cnc23)ncc1C(=O)NC[C@@H](F)C(C)(C)O` [Example 130, (R)—N-(2-fluoro-3-hydroxy-3-methylbutyl)-6-(6-fluoropyrazolo[1,5-a]pyrimidin-3-yl)-4-(isopropylamino)nicotinamide]: the IC50 on IRAK4 was 17 nM. In data set [1], this compound had an EC50 of 1890 nM. The compound also showed a Papp at 2 h, 3 µM in the data set “Caco Permeability Assay” of 22.1 ×10⁻⁶ cm/s.

As for `CNC(=O)c1ccc(Nc2cc(-c3cnn4cc(Cl)cnc34)ncc2C(=O)NC[C@@H](F)C(C)(C)O)cc1` [Example 34, (R)-6-(6-chloropyrazolo[1,5-a]pyrimidin-3-yl)-N-(2-fluoro-3-hydroxy-3-methylbutyl)-4-((4-(methylcarbamoyl)phenyl)amino)nicotinamide], the IC50 on IRAK4 came to 2 nM. This compound also returned an EC50 in data set [1] of 360 nM. In the data set “Caco Permeability Assay”, the Papp at 2 h, 3 µM is < 1.5 ×10⁻⁶ cm/s.
